Active and inactive are the calls of the source. The calls are words filed in the database; no cut-off is given here.
Experiments:
Mus musculus [1] = experiment: Anti-inflammatory activity in ovalbumin-induced allergic rhinitis male Balb/c mouse assessed as reduction in inflammation of nasal mucosal tissue at 50 to 150 mg/kg, po administered via gavage for 7 days by H and E staining based analysis; type: functional, organism-based; conditions: dose 50-150 mg/kg, time 7.0 day
Mus musculus [2] = experiment: Anti-inflammatory activity in ovalbumin-induced allergic rhinitis male Balb/c mouse model assessed as reduction in IgE expression at 100 mg/kg, po administered via gavage for 7 days (reference value: 0.268 +/- 0.045); type: functional; conditions: time 7 day
Mus musculus [3] = experiment: Anti-inflammatory activity in ovalbumin-induced allergic rhinitis male Balb/c mouse model assessed as reduction in IL-4 expression in nasal lavage fluid at 50 to 150 mg/kg, po administered via gavage for 7 days by ELISA; type: functional, organism-based; conditions: dose 50-150 mg/kg, time 7.0 day
RAW264.7 [4] = experiment: Downregulation of p-JNK protein expression in LPS-induced mouse RAW264.7 cells at 5 to 20 uM by Western blotting analysis; type: functional, cell-based; conditions: dose 5-20 µM
Mus musculus [5] = experiment: Anti-inflammatory activity in ovalbumin-induced allergic rhinitis male Balb/c mouse model assessed as reduction in serum histamine expression at 50 to 150 mg/kg, po administered via gavage for 7 days by ELISA; type: functional, organism-based; conditions: dose 50-150 mg/kg, time 7.0 day
Mus musculus [6] = experiment: Anti-inflammatory activity in ovalbumin-induced allergic rhinitis male Balb/c mouse assessed as reduction in number of mast cells on nasal lavage fluid at 50 to 150 mg/kg, po administered via gavage for 7 days by giemsa staining based analysis; type: functional, organism-based; conditions: dose 50-150 mg/kg, time 7.0 day
RAW264.7 [7] = experiment: Downregulation of p-P38 expression in mouse RAW264.7 cells at 5 to 20 uM by immunofluorescence staining based analysis; type: functional, cell-based; conditions: dose 5-20 µM
RAW264.7 [8] = experiment: Downregulation of p-P38 intranuclear expression in mouse RAW264.7 cells at 5 to 20 uM by immunofluorescence staining based analysis; type: functional, cell-based; conditions: dose 5-20 µM
RAW264.7 [9] = experiment: Anti-inflammatory activity in LPS-induced mouse RAW264.7 cells assessed as reduction in TNF-alpha mRNA expression incubated for 24 hrs by qRT-PCR analysis; type: functional, cell-based; conditions: dose 5-20 µM
Mus musculus [10] = experiment: Anti-inflammatory activity in ovalbumin-induced allergic rhinitis male Balb/c mouse model assessed as reduction in sneezing administered orally via gavage for 7 days; type: functional, organism-based; conditions: dose 50-150 mg/kg, route po, time 7.0 day
RAW264.7 [11] = experiment: Downregulation of P-P65 protein expression in LPS-induced mouse RAW264.7 cells at 5 to 20 uM by Western blotting analysis; type: functional, cell-based; conditions: dose 5-20 µM
RAW264.7 [12] = experiment: Anti-inflammatory activity in LPS-induced mouse RAW264.7 cells assessed as reduction in IL-1beta mRNA expression incubated for 24 hrs by qRT-PCR analysis; type: functional, cell-based; conditions: dose 5-20 µM
Mus musculus [13] = experiment: Anti-inflammatory activity in ovalbumin-induced allergic rhinitis male Balb/c mouse model assessed as reduction in IgE expression at 50 mg/kg, po administered via gavage for 7 days (reference value: 0.268 +/- 0.045); type: functional; conditions: time 7 day
Mus musculus [14] = experiment: Anti-inflammatory activity in ovalbumin-induced allergic rhinitis male Balb/c mouse assessed as reduction in number of eosinophils on nasal lavage fluid at 50 to 150 mg/kg, po administered via gavage for 7 days by giemsa staining based analysis; type: functional, organism-based; conditions: dose 50-150 mg/kg, time 7.0 day
Mus musculus [15] = experiment: Anti-inflammatory activity in ovalbumin-induced allergic rhinitis male Balb/c mouse assessed as reduction in number of mast cells on nasal lavage fluid at 150 mg/kg, po administered via gavage for 7 days by giemsa staining based analysis; type: functional, organism-based; conditions: time 7.0 day
RAW264.7 [16] = experiment: Downregulation of p-ERK protein expression in LPS-induced mouse RAW264.7 cells at 5 to 20 uM by Western blotting analysis; type: functional, cell-based; conditions: dose 5-20 µM
RAW264.7 [17] = experiment: Inhibition of IL-6 (unknown origin) in mouse RAW264.7 relative to control; type: cell-based; conditions: dose or concentration not given here
RAW264.7 [18] = experiment: Inhibition of IL-1beta (unknown origin) in mouse RAW264.7 relative to control; type: cell-based; conditions: dose or concentration not given here
RAW264.7 [19] = experiment: Anti-inflammatory activity in LPS-induced mouse RAW264.7 cells assessed as reduction in IL-6 mRNA expression incubated for 24 hrs by qRT-PCR analysis; type: functional, cell-based; conditions: dose 5-20 µM
Mus musculus [20] = experiment: Anti-inflammatory activity in ovalbumin-induced allergic rhinitis male Balb/c mouse model assessed as reduction in nose scratching administered orally via gavage for 7 days; type: functional, organism-based; conditions: dose 50-150 mg/kg, route po, time 7.0 day
Mus musculus [21] = experiment: Anti-inflammatory activity in ovalbumin-induced allergic rhinitis male Balb/c mouse model assessed as decrease in p-p38 intranuclear expression in nasal mucosal at 50 to 150 mg/kg, po administered via gavage for 7 days by immunofluorescence staining based analysis; type: functional, organism-based; conditions: dose 50-150 mg/kg, time 7.0 day
Mus musculus [22] = experiment: Anti-inflammatory activity in ovalbumin-induced allergic rhinitis male Balb/c mouse assessed as reduction in number of eosinophils on nasal lavage fluid at 150 mg/kg, po administered via gavage for 7 days by giemsa staining based analysis; type: functional, organism-based; conditions: time 7.0 day
RAW264.7 [23] = experiment: Downregulation of CB1 R expression in LPS-induced mouse RAW264.7 cells at 5 to 20 uM by immunofluorescence staining based analysis; type: functional, cell-based; conditions: dose 5-20 µM
Mus musculus [24] = experiment: Anti-inflammatory activity in ovalbumin-induced allergic rhinitis male Balb/c mouse model assessed as reduction in serum histamine expression at 150 mg/kg, po administered via gavage for 7 days by ELISA; type: functional, organism-based; conditions: time 7.0 day
RAW264.7 [25] = experiment: Downregulation of p-P38 protein expression in LPS-induced mouse RAW264.7 cells at 5 to 20 uM by Western blotting analysis; type: functional, cell-based; conditions: dose 5-20 µM
RAW264.7 [26] = experiment: Downregulation of P-IKBalpha protein expression in LPS-induced mouse RAW264.7 cells at 5 to 20 uM by Western blotting analysis; type: functional, cell-based; conditions: dose 5-20 µM
Mus musculus [27] = experiment: Anti-inflammatory activity in ovalbumin-induced allergic rhinitis male Balb/c mouse assessed as reduction in number of cells on nasal lavage fluid at 50 to 150 mg/kg, po administered via gavage for 7 days by giemsa staining based analysis; type: functional, organism-based; conditions: dose 50-150 mg/kg, time 7.0 day
RAW264.7 [28] = experiment: Cytotoxicity against mouse RAW264.7 cells assessed as reduction in cell viability at 10 uM incubated for 24 hrs by CCK-8 assay; type: toxicity, cell-based; conditions: raw264.7, 24 h
Mus musculus [29] = experiment: Anti-inflammatory activity in ovalbumin-induced allergic rhinitis male Balb/c mouse model assessed as reduction in IgE expression at 150 mg/kg, po administered via gavage for 7 days (reference value: 0.268 +/- 0.045); type: functional; conditions: time 7 day
Mus musculus [30] = experiment: Anti-inflammatory activity in ovalbumin-induced allergic rhinitis male Balb/c mouse assessed as reduction in number of goblet cells in nasal mucosal tissues at 50 to 150 mg/kg, po administered via gavage for 7 days by PAS staining based analysis; type: functional, organism-based; conditions: dose 50-150 mg/kg, time 7.0 day

CN(/C=C\c1ccccc1)C(=O)c1nc(C2CCCCC2)n(-c2ccccc2)n1
Activity (Mus musculus [1]): Active | Activity (Mus musculus [2]): 0.212 | Activity (Mus musculus [3]): Active | Activity (RAW264.7 [4]): Active | Activity (Mus musculus [5]): Active | Activity (Mus musculus [6]): Active | Activity (RAW264.7 [7]): Active | Activity (RAW264.7 [8]): Active | Activity (RAW264.7 [9]): Dose-dependent-effect | Activity (Mus musculus [10]): Dose-dependent-effect | Activity (RAW264.7 [11]): Active | Activity (RAW264.7 [12]): Dose-dependent-effect | Activity (Mus musculus [13]): 0.192 | Activity (Mus musculus [14]): Active | Activity (Mus musculus [15]): Active; Most Effective Group Compared To Other Dosing Group | Activity (RAW264.7 [16]): Active | inhibition (RAW264.7 [17]): 88% | inhibition (RAW264.7 [18]): 77% | Activity (RAW264.7 [19]): Dose-dependent-effect | Activity (Mus musculus [20]): Dose-dependent-effect | Activity (Mus musculus [21]): Active | Activity (Mus musculus [22]): Active; Most Effective Group Compared To Other Dosing Group | Activity (RAW264.7 [23]): Active | Activity (Mus musculus [24]): Active; More Effective Than Other Dosing Group | Activity (RAW264.7 [25]): Active | Activity (RAW264.7 [26]): Active | Activity (Mus musculus [27]): Active | Activity (RAW264.7 [28]): Non-toxic | Activity (Mus musculus [29]): 0.182 | Activity (Mus musculus [30]): Active
